Data: patent US6534278B1, “Screening for antibiotics” (priority 1997, dated 2003)
≈ marks a conversion by molar mass, not a printed value. Where a SMILES comes first, the peptide text is derived from it. Bridges are numbered along the chain shown (N, C = ends). [ ]: non-standard residue; d: D form. The star is where a group is joined. Ileψ(thiazoline)Cys = CC[C@H](C)[C@H](N)C1=N[C@H](C(=O)*)CS1; dOrn = NCCC[C@@H](N)C(=O)O; Dab = NCC[C@H](N)C(=O)O

Columns and labels:
[1] = tested on: E. coli strain D22 carrying plasmid pNU305 (ampC and ampR genes from Citrobacter freundii, envA-); test: β-lactamase induction screen (nitrocefin, OD 490 nm); format: cell-based; settings: for [Induction] (limit of detection of β-lactamase induction): lowest concentration at which β-lactamase induction begins to increase, average over trials
Procedure: Screening Strain: E. coli strain D22 carrying plasmid pNU305 which contains the ampC and ampR genes from Citrobacter freundii, the envA-allele, a colEI origin of replication, and a tetracycline resistance determinant was grown in Luria Broth (LB; 5 g yeast extract, 10 g tryptone, and 10 g sodium chloride per liter of purified water) supplemented with E salts (400 μl E salts per 100 ml LB; the E salts contained-10 g magnesium sulfate heptahydrate, 100 g citric acidmonohydrate, 500 g anhydrous dibasic potassium phosphate, and 175 g of monosodium monoammonium phosphate tetrahydrate per liter of purified water).
Reaction Buffer: Nitrocefin was dissolved in dimethylsulfoxide (DMSO) to a concentration of 25 mg/ml and stored in 1 ml aliquots at −80° C. To prepare a reaction buffer, one of the nitrocefin/DMSO aliquots was added to 50 ml Z buffer with detergents (16.1 g dibasic sodium phosphate heptahydrate, 5.5 g monobasic sodium phosphate monohydrate, 0.75 g potassium chloride, 246 mg magnesium sulfate heptahydrate, 200 mg CTAB, and 100 mg sodium deoxycholate per liter, with the pH adjusted to 7.0) and the mixture was vortexed vigorously. The resulting suspension was filtered through Q5 filter paper (Fisher, Cat. No. 09-790-2e) to remove insoluble material. The filtered reaction buffer was stored at −80° C. until it was needed.
Growth Regimen: A single colony of the E. coli (i.e., a starter colony) was streaked onto an LB plate (with tetracycline) and incubated overnight at 37° C. Cells from the starter colony were then used to inoculate multiple colonies in LB (without tetracycline) to give a cell density no higher than 0.05 OD at 650 nm. The cells were grown at 37° C. under aerating conditions (i.e., shaken at 200 rpm in Erlenmeyer flasks having a volume of at least 10 times that of the culture.
Screening: When the cells had grown to a cell density of 0.25 to 0.8 OD at 650 nm, the culture was diluted to 0.25 OD. 80 μl of the diluted culture was added to each well of a microtiter plate containing 20 μl samples from a simulated natural product library, using an automated liquid dispensing robot from Titrtek (Huntsville, Ala.).
A positive control compound (25 μg/ml fosfomycin) was added to some of the wells and other wells were left untreated, as negative control samples. The samples were incubated on the plate for one hour at 37° C. without shaking.
Assay: 10 μl aliquots were transferred from each well to a second microtiter plate, using a Quadra 96 Model 320 robot (TomTec, Hamden, Conn.). 90 μl of the reaction buffer prepared above was added to each well using a automated liquiddispensing robot (Titrtek, Huntsville, Ala.). The OD of the samples was immediately read at […] in a plate reader (Biorad, Model 3550) to obtain zero point β-lactamase levels. The OD was measured again after incubating the plates at room temperature for 90 minutes (room temperature near 30° C.) or 120 minutes (room temperature below 30° C.).
Data Analysis: An induction value, I, was determined for each sample according to the following formula: I=(OD of sample—median OD)/(OD of induced cells—median OD); where the median OD was determined for each plate and the OD of induced cells was defined as the average of the readings from the control wells exposed to the 25 μg/ml fosfomycin. […] Any sample having I≧0.2 was considered to be positive. Since the assay is calorimetric, the zero-point levels were subtracted from the OD readings.
The same mixtures were also screened for increased β-lactamase using the new methods. The β-lactamase produced was plotted against the logarithm of ramoplanin concentration. FIGS. 3A and 3B show two examples of such. plots. As shown by the leftmost 6 and 7 solid black circles in FIGS. 3A and 3B, respectively, these plots show no effect of low concentrations of added ramoplanin on β-lactamase induction, up to a ramoplanin concentration of about 0.8 to 1.6 μg/ml. At this level, the β-lactamase induction level began to increase. […]

[2] = tested on: envA-cells containing the pNU305 plasmid; test: microbe, parasite or virus in culture
Procedure: The optical density (OD) of each reaction mixture was measured at 655 nm. The lowest concentration of ramoplanin for which the OD reading was zero was taken to be the MIC.

[3] = lowest concentration with OD 655 nm of zero, 5×10^5 cells/ml, 18 hours, 37° C.

Row | Compound | [Induction] (limit of detection of β-lactamase induction) [1] | MIC [2, 3] [µg/mL] | MIC ([2]; Escherichia coli, 18 h) [µg/mL] | detection concentration times less than the minimum inhibitory concentration (MIC / limit of detection) ([1]; 20/1.8) | [Induction] (limit of detection of β-lactamase induction) ([1]; listed as ramoplanin) | MIC ([2]; lowest concentration with OD 655 nm of zero, 5×10^5 cells/ml, 18 hours, 37° C., listed as ramoplanin)
1 | CC[C@H](C)[C@H](N)C1=N[C@H](C(=O)N[C@@H](CC(C)C)C(=O)N[C@H](CCC(=O)O)C(=O)N[C@H](C(=O)N[C@H]2CCCCNC(=O)[C@H](CC(N)=O)NC(=O)[C@@H](CC(=O)O)NC(=O)[C@H](Cc3cnc[nH]3)NC(=O)[C@@H](Cc3ccccc3)NC(=O)[C@H]([C@@H](C)CC)NC(=O)[C@@H](CCCN)NC2=O)[C@@H](C)CC)CS1 [Bacitracin] ({Ileψ(thiazoline)Cys}-L[dE]IK[dOrn]I[dF]H[dD]N; lactam 4-C) | 1.6 µg/mL | 12.5 (≈ 8.79 µM) | – | – | – | –
2 | CO[C@@]1(NC(=O)Cc2cccs2)C(=O)N2C(C(=O)O)=C(COC(N)=O)CS[C@@H]21 [Cefoxitin] | 2.5 µg/mL | – | 7 (≈ 16.4 µM) | – | – | –
3 | O=C(O)c1cn(C2CC2)c2cc(N3CCNCC3)c(F)cc2c1=O [Ciprofloxacin] | none | – | 0.01 (≈ 0.0302 µM) | – | – | –
4 | N[C@@H]1CON=C1O [Cycloserine] | 20 µg/mL | – | 12.5 (≈ 122 µM) | – | – | –
5 | CC[C@H]1OC(=O)[C@H](C)[C@@H](O[C@H]2C[C@@](C)(OC)[C@@H](O)[C@H](C)O2)[C@H](C)[C@@H](O[C@@H]2O[C@H](C)C[C@H](N(C)C)[C@H]2O)[C@](C)(O)C[C@@H](C)C(=O)[C@H](C)[C@@H](O)[C@]1(C)O [Erythromycin] | none | – | 0.8 (≈ 1.09 µM) | – | – | –
6 | C[C@@H]1O[C@@H]1P(=O)(O)O [Fosfomycin] | 0.7 µg/mL | – | 0.7 (≈ 5.07 µM) | – | – | –
7 | CC[C@@]1([C@@H]2O[C@@H]([C@H]3O[C@@](O)(CO)[C@H](C)C[C@@H]3C)C[C@@H]2C)CC[C@H]([C@]2(C)CC[C@]3(C[C@H](O)[C@@H](C)[C@@H]([C@@H](C)[C@@H](OC)[C@H](C)C(=O)O)O3)O2)O1 [Monensin] | none | – | > 100 | – | – | –
8 | CC(C)C[C@@H]1NC(=O)[C@@H](Cc2ccccc2)NC(=O)[C@H](CCN)NC(=O)[C@@H](NC(=O)[C@H](CCN)NC(=O)[C@@H](N)[C@@H](C)O)CCNC(=O)[C@H]([C@@H](C)O)NC(=O)[C@H](CCN)NC(=O)[C@H](CCN)NC1=O [Polymyxin B nonapeptide] (H-T[Dab][Dab][Dab][dF]L[Dab][Dab]T; lactam 3-C; N-terminus assumed) | 6.3 µg/mL | >100 | – | – | – | –
9 | CO[C@H]1/C=C/O[C@@]2(C)Oc3c(C)c(O)c4c(O)c(c(/C=N/N5CCN(C)CC5)c(O)c4c3C2=O)NC(=O)/C(C)=C\C=C\[C@H](C)[C@H](O)[C@@H](C)[C@@H](O)[C@@H](C)[C@H](OC(C)=O)[C@@H]1C [Rifampicin] | – | – | 0.06 (≈ 0.0729 µM) | – | – | –
10 | CCCCCCCCCCCCOS(=O)(=O)[O-].[Na+] [Sodium dodecyl sulfate] | 4 µg/mL | – | 2 | – | – | –
11 | CN[C@H](CC(C)C)C(=O)N[C@H]1C(=O)N[C@@H](CC(N)=O)C(=O)N[C@H]2C(=O)N[C@H]3C(=O)N[C@H](C(=O)N[C@H](C(=O)O)c4cc(O)cc(O)c4-c4cc3ccc4O)[C@H](O)c3ccc(c(Cl)c3)Oc3cc2cc(c3O[C@@H]2O[C@H](CO)[C@@H](O)[C@H](O)[C@H]2O[C@H]2C[C@](C)(N)[C@H](O)[C@H](C)O2)Oc2ccc(cc2Cl)[C@H]1O [Vancomycin] | 4 µg/mL | – | 10 (≈ 6.9 µM) | – | – | –
12 | Moenomycin | 1 µg/mL | 2 | – | – | – | –
13 | Polymyxin B sulfate | 0.2 µg/mL | 0.4 | – | – | – | –
14 | Ramoplanin | 1.8 µg/mL | 20 | – | about 11 times | about 1.8 μg/ml | about 20 μg/ml
15 | Triton X-100 | 100 µg/mL | 500 | – | – | – | –
